{
  "source": "the supplement of paper PMC10307832",
  "assay_in_all_cases": "relative viability (nuclei count vs DMSO), 5 days (fraction); higher = more cells survive",
  "key": {"[1]": {"test_system": "201T", "outline": "(§1)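 Dosing by pin tool came one day after lung cancer cell lines were seeded in 1536-well plates, using either one drug or a fixed anchor-drug dose plus five library-drug doses (not always all listed) in √10 steps. After 5 days, nuclei were counted on 4× images. Relative viability is treated-well nuclei count divided by vehicle-well nuclei count, and values are medians of duplicate plates.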"}, "[2]": {"test_system": "COR-L 105", "outline": "as §1"}, "[3]": {"test_system": "ChaGo-K-1", "outline": "as §1"}, "[4]": {"test_system": "EKVX", "outline": "as §1"}, "[5]": {"test_system": "H3255", "outline": "as §1"}, "[6]": {"test_system": "HARA", "outline": "as §1"}, "[7]": {"test_system": "HCC-827", "outline": "as §1"}, "[8]": {"test_system": "HOP-62", "outline": "as §1"}, "[9]": {"test_system": "LOU-NH91", "outline": "as §1"}, "[10]": {"test_system": "NCI-H1975", "outline": "as §1"}, "[11]": {"test_system": "NCI-H2126", "outline": "as §1"}, "[12]": {"test_system": "NCI-H2228", "outline": "as §1"}, "[13]": {"test_system": "NCI-H23", "outline": "as §1"}, "[14]": {"test_system": "NCI-H2405", "outline": "as §1"}, "[15]": {"test_system": "NCI-H3122", "outline": "as §1"}, "[16]": {"test_system": "NCI-H596", "outline": "as §1"}, "[17]": {"test_system": "NCI-H727", "outline": "as §1"}, "[18]": {"test_system": "PC-3 [JPC-3]", "outline": "as §1"}, "[19]": {"test_system": "SK-LU-1", "outline": "as §1"}},
  "data": [
    {"smiles": "Cc1csc(=NC2CCCCC2)n1/N=C/c1ccc(O)c(O)c1O", "note": "[MIM1] + CC1(C)CCC(c2ccc(Cl)cc2)=C(CN2CCN(c3ccc(C(=O)NS(=O)(=O)c4ccc(N[C@H](CCN5CCOCC5)CSc5ccccc5)c(S(=O)(=O)C(F)(F)F)c4)cc3)CC2)C1 [Navitoclax] (partner 0.5 µM)", "values": [
      {"measurement": "relative viability", "setting": "[1]; first compound 0.2 µM", "result": 1.2},
      {"measurement": "relative viability", "setting": "[1]; first compound 0.6325 µM", "result": 1.21},
      {"measurement": "relative viability", "setting": "[1]; first compound 2 µM", "result": 1.24},
      {"measurement": "relative viability", "setting": "[1]; first compound 6.325 µM", "result": 1.19},
      {"measurement": "relative viability", "setting": "[1]; first compound 20 µM", "result": 1.26},
      {"measurement": "relative viability", "setting": "[2]; first compound 0.2 µM", "result": 0.78},
      {"measurement": "relative viability", "setting": "[2]; first compound 0.6325 µM", "result": 0.8},
      {"measurement": "relative viability", "setting": "[2]; first compound 2 µM", "result": 0.732},
      {"measurement": "relative viability", "setting": "[2]; first compound 6.325 µM", "result": 0.628},
      {"measurement": "relative viability", "setting": "[2]; first compound 20 µM", "result": 0.54},
      {"measurement": "relative viability", "setting": "[3]; first compound 0.2 µM", "result": 1.14},
      {"measurement": "relative viability", "setting": "[3]; first compound 0.6325 µM", "result": 0.741},
      {"measurement": "relative viability", "setting": "[3]; first compound 2 µM", "result": 0.943},
      {"measurement": "relative viability", "setting": "[3]; first compound 6.325 µM", "result": 0.717},
      {"measurement": "relative viability", "setting": "[3]; first compound 20 µM", "result": 0.31},
      {"measurement": "relative viability", "setting": "[4]; first compound 0.2 µM", "result": 0.922},
      {"measurement": "relative viability", "setting": "[4]; first compound 0.6325 µM", "result": 1.07},
      {"measurement": "relative viability", "setting": "[4]; first compound 2 µM", "result": 0.965},
      {"measurement": "relative viability", "setting": "[4]; first compound 6.325 µM", "result": 0.761},
      {"measurement": "relative viability", "setting": "[4]; first compound 20 µM", "result": 0.293},
      {"measurement": "relative viability", "setting": "[5]; first compound 0.2 µM", "result": 0.561},
      {"measurement": "relative viability", "setting": "[5]; first compound 0.6325 µM", "result": 0.557},
      {"measurement": "relative viability", "setting": "[5]; first compound 2 µM", "result": 0.467},
      {"measurement": "relative viability", "setting": "[5]; first compound 6.325 µM", "result": 0.413},
      {"measurement": "relative viability", "setting": "[5]; first compound 20 µM", "result": 0.198},
      {"measurement": "relative viability", "setting": "[6]; first compound 0.2 µM", "result": 1.13},
      {"measurement": "relative viability", "setting": "[6]; first compound 0.6325 µM", "result": 1.15},
      {"measurement": "relative viability", "setting": "[6]; first compound 2 µM", "result": 1.19},
      {"measurement": "relative viability", "setting": "[6]; first compound 6.325 µM", "result": 1.13},
      {"measurement": "relative viability", "setting": "[6]; first compound 20 µM", "result": 0.23},
      {"measurement": "relative viability", "setting": "[7]; first compound 0.2 µM", "result": 0.961},
      {"measurement": "relative viability", "setting": "[7]; first compound 0.6325 µM", "result": 1.01},
      {"measurement": "relative viability", "setting": "[7]; first compound 2 µM", "result": 0.977},
      {"measurement": "relative viability", "setting": "[7]; first compound 6.325 µM", "result": 0.39},
      {"measurement": "relative viability", "setting": "[7]; first compound 20 µM", "result": 0.696},
      {"measurement": "relative viability", "setting": "[8]; first compound 0.2 µM", "result": 1.11},
      {"measurement": "relative viability", "setting": "[8]; first compound 0.6325 µM", "result": 1.11},
      {"measurement": "relative viability", "setting": "[8]; first compound 2 µM", "result": 0.525},
      {"measurement": "relative viability", "setting": "[8]; first compound 6.325 µM", "result": 0.86},
      {"measurement": "relative viability", "setting": "[8]; first compound 20 µM", "result": 0.559},
      {"measurement": "relative viability", "setting": "[9]; first compound 0.2 µM", "result": 0.588},
      {"measurement": "relative viability", "setting": "[9]; first compound 0.6325 µM", "result": 0.69},
      {"measurement": "relative viability", "setting": "[9]; first compound 2 µM", "result": 0.532},
      {"measurement": "relative viability", "setting": "[9]; first compound 6.325 µM", "result": 0.492},
      {"measurement": "relative viability", "setting": "[9]; first compound 20 µM", "result": 0.313},
      {"measurement": "relative viability", "setting": "[10]; first compound 0.2 µM", "result": 1.16},
      {"measurement": "relative viability", "setting": "[10]; first compound 0.6325 µM", "result": 1.23},
      {"measurement": "relative viability", "setting": "[10]; first compound 2 µM", "result": 1.04},
      {"measurement": "relative viability", "setting": "[10]; first compound 6.325 µM", "result": 0.732},
      {"measurement": "relative viability", "setting": "[10]; first compound 20 µM", "result": 0.761},
      {"measurement": "relative viability", "setting": "[11]; first compound 0.2 µM", "result": 0.898},
      {"measurement": "relative viability", "setting": "[11]; first compound 0.6325 µM", "result": 0.854},
      {"measurement": "relative viability", "setting": "[11]; first compound 2 µM", "result": 0.974},
      {"measurement": "relative viability", "setting": "[11]; first compound 6.325 µM", "result": 0.831},
      {"measurement": "relative viability", "setting": "[11]; first compound 20 µM", "result": 0.812},
      {"measurement": "relative viability", "setting": "[12]; first compound 0.2 µM", "result": 0.959},
      {"measurement": "relative viability", "setting": "[12]; first compound 0.6325 µM", "result": 0.916},
      {"measurement": "relative viability", "setting": "[12]; first compound 2 µM", "result": 0.874},
      {"measurement": "relative viability", "setting": "[12]; first compound 6.325 µM", "result": 0.274},
      {"measurement": "relative viability", "setting": "[12]; first compound 20 µM", "result": 0.157},
      {"measurement": "relative viability", "setting": "[13]; first compound 0.2 µM", "result": 0.631},
      {"measurement": "relative viability", "setting": "[13]; first compound 2 µM", "result": 0.632},
      {"measurement": "relative viability", "setting": "[13]; first compound 6.325 µM", "result": 0.934},
      {"measurement": "relative viability", "setting": "[13]; first compound 20 µM", "result": 0.242},
      {"measurement": "relative viability", "setting": "[14]; first compound 0.2 µM", "result": 0.946},
      {"measurement": "relative viability", "setting": "[14]; first compound 0.6325 µM", "result": 0.999},
      {"measurement": "relative viability", "setting": "[14]; first compound 2 µM", "result": 0.884},
      {"measurement": "relative viability", "setting": "[14]; first compound 6.325 µM", "result": 0.798},
      {"measurement": "relative viability", "setting": "[14]; first compound 20 µM", "result": 0.35},
      {"measurement": "relative viability", "setting": "[15]; first compound 0.2 µM", "result": 1.06},
      {"measurement": "relative viability", "setting": "[15]; first compound 0.6325 µM", "result": 1.09},
      {"measurement": "relative viability", "setting": "[15]; first compound 2 µM", "result": 1.1},
      {"measurement": "relative viability", "setting": "[15]; first compound 6.325 µM", "result": 0.761},
      {"measurement": "relative viability", "setting": "[15]; first compound 20 µM", "result": 0.426},
      {"measurement": "relative viability", "setting": "[16]; first compound 0.2 µM", "result": 0.935},
      {"measurement": "relative viability", "setting": "[16]; first compound 0.6325 µM", "result": 0.921},
      {"measurement": "relative viability", "setting": "[16]; first compound 2 µM", "result": 0.895},
      {"measurement": "relative viability", "setting": "[16]; first compound 6.325 µM", "result": 0.806},
      {"measurement": "relative viability", "setting": "[16]; first compound 20 µM", "result": 0.7},
      {"measurement": "relative viability", "setting": "[17]; first compound 0.2 µM", "result": 0.441},
      {"measurement": "relative viability", "setting": "[17]; first compound 0.6325 µM", "result": 0.493},
      {"measurement": "relative viability", "setting": "[17]; first compound 2 µM", "result": 0.324},
      {"measurement": "relative viability", "setting": "[17]; first compound 6.325 µM", "result": 0.346},
      {"measurement": "relative viability", "setting": "[17]; first compound 20 µM", "result": 0.27},
      {"measurement": "relative viability", "setting": "[18]; first compound 0.2 µM", "result": 0.821},
      {"measurement": "relative viability", "setting": "[18]; first compound 0.6325 µM", "result": 0.682},
      {"measurement": "relative viability", "setting": "[18]; first compound 2 µM", "result": 0.897},
      {"measurement": "relative viability", "setting": "[18]; first compound 6.325 µM", "result": 0.696},
      {"measurement": "relative viability", "setting": "[18]; first compound 20 µM", "result": 0.531},
      {"measurement": "relative viability", "setting": "[19]; first compound 0.2 µM", "result": 0.708},
      {"measurement": "relative viability", "setting": "[19]; first compound 0.6325 µM", "result": 0.78},
      {"measurement": "relative viability", "setting": "[19]; first compound 2 µM", "result": 0.957},
      {"measurement": "relative viability", "setting": "[19]; first compound 6.325 µM", "result": 0.824},
      {"measurement": "relative viability", "setting": "[19]; first compound 20 µM", "result": 0.841}
    ]}
  ]
}
